{
  "source": "paper PMC4788259",
  "about": "(PLoS Neglected Tropical Diseases, 2016)",
  "key": {"[1]": {"test_system": "E. multilocularis metacestodes", "test": "PGI assay: phosphoglucose isomerase release from damaged metacestodes", "format": "cell-based, Echinococcus multilocularis", "conditions": "5 days; for EC50: PGI assay, 10-0.01 μM; for activity in PGI assay at 1 μM: triplicates", "summary_of_the_method": "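E. multilocularis metacestode vesicles (strain H95, grown in BALB/c mice, 2–4 mm diameter) were exposed in vitro to compounds for 5 days. Damage was read as phosphoglucose isomerase released into the medium. Initial screening used 10 μM in single wells, with 0.1% DMSO as negative control. EC50 values were derived from this read-out.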"}, "[2]": {"test_system": "human foreskin fibroblasts (HFF)", "test": "alamarBlue viability assay on HFF", "format": "cell-based", "conditions": "Fibroblast, 120 h, 5 days", "protocol": "(§1) For testing growth inhibitory effects on confluent host cells, cells were seeded in 96-well plates (10,000 cells per well for HFF and 50,000 cells per well for RH cells), in DMEM containing FBS (10%) and antibiotics (100 U penicillin, 100 μg streptomycin and 0.25 μg amphotericin B per mL medium) and were cultured overnight at 37°C, 5% CO2. Thereafter the drugs (10 μM) were added and diluted in a serial 1:2 dilutions down to 20 nM. The concentration range was further adjusted in subsequent setups. For testing growth inhibitory effects on proliferating cells, cells were seeded at 1,000 (HFF) and 5,000 (RH) cells per well, and were allowed to attach for 5 hours at 37°C before addition of the drugs. After 5 days of culture, cell viability was assessed by alamarBlue assay."}, "[3]": {"test_system": "Reuber rat hepatoma (RH) cells", "test": "alamarBlue viability assay on RH cells", "format": "cell-based", "conditions": "120 h, 5 days", "protocol": "as §1"}, "[4]": {"test_system": "E. multilocularis germinal layer cells", "test": "CellTiter-Glo viability assay on germinal layer cell cultures", "format": "cell-based", "conditions": "Echinococcus multilocularis, 120 h, 5 days, read-out: E.m. GL cells (IC50)", "protocol": "To assess the effects of MMV665807 on the viability of parasite cells, germinal layer cells were extracted according to Spiliotis et al. After overnight aggregate formation, 15 units of cells were distributed to a black 384 well plate (Nunc, Thermo Scientific, Reinach, Switzerland) in 12.5 μL medium. A concentration series (final concentrations of 3, 1, 0.3, 0.1, 0.03, 0.01 μM) of MMV665807, MMV665794 and mefloquine were prepared in medium and added 1:2 to the cells. For mefloquine, the concentration range was adjusted in a subsequent setup up to 100 μM. As negative control, DMSO was added accordingly. After 5 days of culture at 37°C under humid nitrogen atmosphere, 25 μL CellTiter-Glo (Promega, Dübendorf, Switzerland) including 1% TritonX-100 was added. Plates were incubated for 15 minutes on a shaker at room temperature and complete disruption of all cell aggregates was checked for before measurement of luminescence on a 2300 Enspire multilabel reader (Perkin-Elmer). Mean values and standard deviations were calculated and DMSO values set to 100% viability. The IC50 value was calculated in Microsoft Excel 2010 after logit-log transformation and averages as well as standard deviations of four independent setups were calculated."}, "[5]": {"test_system": "newly transformed schistosomula", "parameters": "method as in PMID 24416463", "conditions": "in vitro; read-out: IC50 against newly transformed schistosomula; cited from earlier work"}, "adult worms": {"test_system": "adult worms", "parameters": "method as in PMID 24416463", "conditions": "in vitro; read-out: IC50 against adult worms; cited from earlier work"}, "[6]": {"test_system": "E. multilocularis metacestodes", "conditions": "PGI assay; cited from earlier work"}, "[7]": {"test_system": "E. multilocularis metacestode vesicles", "test": "microbe, parasite or virus in culture", "conditions": "Echinococcus multilocularis, 288 h, read-out: mean viability"}, "S. mansoni": {"test_system": "S. mansoni", "parameters": "method as in PMID 24416463", "conditions": "cited from earlier work"}, "[8]": {"test_system": "E. multilocularis metacestodes", "test": "Peroral treatment of secondary infected mice", "format": "in vivo, BALB/c mice", "conditions": "p.o. gavage 5 days per week, 4 weeks, MMV665807 100 mg/kg, ABZ 200 mg/kg", "protocol": "(§2) Animals were kept at a temperature-controlled 12/12 hours light cycle with food and water ad libitum and according to the Swiss Animal protection law. For the in vivo treatment of MMV665807, BALB/c mice (from Charles River, Sulzfeld, Germany), at the age of 8 weeks with an average body weight of 20 g, were i.p. infected with 200 μL metacestodes vesicle suspension. This material was prepared from in vitro-cultured metacestodes (strain H95), which were disintegrated by pressing the parasites through a 1 mL pipette tip. Parasite tissue was centrifuged at 500 x g for 5 min at room temperature before being mixed 1:1 in PBS.\nPeroral (p.o.) drug treatments by gavage were initiated 6 weeks post-infection and performed as follows: group 1 received no treatment at all; group 2 received 100 μL corn oil containing 7.8 μL DMSO; group 3 mice were treated with 100 μL corn oil containing albendazole (ABZ) in 7.8 μL DMSO, in order to obtain a dosage of 200 mg/kg body weight (positive control); group 4 was treated with 100 μL corn oil containing MMV665807 in 7.8 μL DMSO, resulting in 100 mg/kg body weight. All mice were treated for a total time period of 4 weeks, with consecutive treatment during 5 days per week, and interruption of treatment for 2 days each week. At the end of the treatment, all mice were sedated by isoflurane and subsequently euthanized by CO2. All parasite tissue was resected, placed into a petri dish, and the parasite mass was weighed. Statistical analysis of the in vivo experiments was performed in R version 3.0.1. The data distribution was checked by Shapiro-Wilk test and eventual differences between treatment groups identified by the non-parametric Kruskal-Wallis test. P values were calculated by the non-parametric Wilcoxon […] test with Bonferroni-adjustment. Boxplot visualizations of the data were prepared in Microsoft Excel 2010."}, "[9]": {"test_system": "E. multilocularis metacestodes", "test": "Intraperitoneal treatment of secondary infected mice", "format": "in vivo, BALB/c mice", "conditions": "4 weeks, MMV665807 100 mg/kg i.p. three times per week, ABZ 200 mg/kg p.o. 5 days per week", "protocol": "as §2\nI.p. drug treatments were initiated 2 weeks post-infection. 32 infected mice were randomly separated into 4 groups with 2 times 4 animals per cage. All animals were exposed to 4 weeks of treatment, with five consecutive days of drug application followed by a 2 day recovery period without treatment. Treatment groups were defined as follows: group 1 (control) received 50 μL of corn oil by gavage on 5 days per week, and an i.p. injection of DMSO in corn oil (4 μL DMSO and 46 μL corn oil) on three days per week; group 2 also received corn oil by gavage 5 days per week, and an i.p. injection of MMV665807 (100 mg/kg in 4 μL DMSO plus 46 μL corn oil) three times per week; group 3 was treated with the standard albendazole treatment (albendazole in corn oil, 200 mg/kg/ day for 5 days each week) and also received an i.p. injection of 4 μl DMSO suspended in 46 μl corn oil three times per week; group 4 received a combined treatment consisting of albendazole in corn oil by gavage (200 mg/kg/day 5 days per week) and an i.p. injection of MMV665807 (100 mg/kg three times per week). After 4 weeks of treatment, mice were euthanized and the parasite mass resected and measured as described above. Statistical analyses were performed as described above."}},
  "note": "“And” between values parts separate entries of the source, which are not always exact repeats. Equal values may be shown once. Read-outs that look alike come from different tables or passages of the source.",
  "data": [
    {"smiles": "FC(F)(F)c1cccc(Nc2nc3ccccc3nc2Nc2cccc(C(F)(F)F)c2)c1", "note": "[MMV665794]", "values": [
      {"measurement": "EC50", "setting": "[1]; Echinococcus multilocularis, 120 h", "value": "< 5", "unit": "µM"},
      {"measurement": "EC50", "setting": "[1]", "value": "2.8 ± 0.53", "unit": "µM"},
      {"measurement": "IC50", "setting": "[2]; confluent cells, read-out: Confluent HFF (IC50)", "value": "21.5 ± 0.17", "unit": "µM"},
      {"measurement": "IC50", "setting": "[2]; proliferating cells, read-out: Preconfluent HFF (IC50)", "value": "5.9 ± 0.21", "unit": "µM"},
      {"measurement": "IC50", "setting": "[3]; confluent cells, read-out: Confluent RH (IC50)", "value": "0.8 ± 0.15", "unit": "µM"},
      {"measurement": "IC50", "setting": "[3]; proliferating cells, read-out: Preconfluent RH (IC50)", "value": "1.1 ± 0.18", "unit": "µM"},
      {"measurement": "IC50", "setting": "[4]", "value": "5.8 ± 0.16", "unit": "µM"},
      {"measurement": "IC50", "setting": "[5]", "value": "> 33.3", "unit": "µM"},
      {"measurement": "IC50", "setting": "adult worms", "value": 1.1, "unit": "µM"}
    ]},
    {"smiles": "OC(c1cc(C(F)(F)F)nc2c(C(F)(F)F)cccc12)C1CCCCN1", "note": "(stereo not drawn) [Mefloquine, mefloquine, reference compound]", "values": [
      {"measurement": "IC50", "setting": "[4]", "value": "13.8 ± 0.33", "unit": "µM"},
      {"measurement": "EC50", "setting": "[6]", "value": "> 30", "unit": "µM"},
      {"measurement": "viability at 0.1 µM", "setting": "[7]", "value": 59.7, "unit": "%"},
      {"measurement": "viability at 0.2 µM", "setting": "[7]", "value": 74.3, "unit": "%"},
      {"measurement": "viability at 0.4 µM", "setting": "[7]", "value": 67.9, "unit": "%"},
      {"measurement": "viability at 0.8 µM", "setting": "[7]", "value": 70.9, "unit": "%"},
      {"measurement": "viability at 1.6 µM", "setting": "[7]", "value": 75, "unit": "%"},
      {"measurement": "viability at 3.1 µM", "setting": "[7]", "value": 63.5, "unit": "%"},
      {"measurement": "viability at 6.3 µM", "setting": "[7]", "value": 65.8, "unit": "%"},
      {"measurement": "viability at 12.5 µM", "setting": "[7]", "value": 79.4, "unit": "%"},
      {"measurement": "viability at 25 µM", "setting": "[7]", "value": 83.1, "unit": "%"},
      {"measurement": "viability at 50 µM", "setting": "[7]", "value": 5.25, "unit": "%"},
      {"measurement": "viability at 100 µM", "setting": "[7]", "value": 8.49, "unit": "%"}
    ]},
    {"smiles": "O=C(Nc1ccc(Cl)c(Cl)c1)Nc1ccc(Cl)c(Cl)c1", "note": "[MMV665852]", "values": [
      {"measurement": "activity in PGI assay at 1 μM", "setting": "[1]", "value": "no activity at all"},
      {"measurement": "PGI (% of DB1127 at 10 uM)", "setting": "[1]; 10 μM, single wells, relative to DB1127 (10 μM)", "value": "14.8% and 14.75%"},
      {"measurement": "IC50", "setting": "[5]", "value": 4.7, "unit": "µM"},
      {"measurement": "IC50", "setting": "adult worms", "value": 0.8, "unit": "µM"},
      {"measurement": "worm burden reduction", "setting": "S. mansoni; 80 mg/kg", "value": 46, "unit": "%"},
      {"measurement": "worm burden reduction", "setting": "S. mansoni; 400 mg/kg", "value": 52.5, "unit": "%"},
      {"measurement": "worm burden reduction", "setting": "S. mansoni; 4x100 mg/kg", "value": 31.2, "unit": "%"}
    ]},
    {"smiles": "CCCSc1ccc2nc(NC(=O)OC)[nH]c2c1", "note": "[ABZ, albendazole, reference compound]", "values": [
      {"measurement": "parasite weight compared to control", "setting": "[8]; start 6 weeks post-infection", "value": "significant reduction"},
      {"measurement": "adverse effects during treatment", "setting": "[8]", "value": "No adverse effects"},
      {"measurement": "parasite weight compared to placebo group", "setting": "[9]; start 2 weeks post-infection", "value": "significantly lower"},
      {"measurement": "adverse effects during treatment", "setting": "[9]", "value": "No adverse effects"}
    ]},
    {"smiles": "Brc1ccc(Nc2nc3ccccc3nc2Nc2ccc(Br)cc2)cc1", "note": "[MMV007224]", "values": [
      {"measurement": "activity in PGI assay at 1 μM", "setting": "[1]", "value": "lost its activity"},
      {"measurement": "IC50", "setting": "[5]", "value": "> 33", "unit": "µM"},
      {"measurement": "IC50", "setting": "adult worms", "value": 0.8, "unit": "µM"}
    ]}
  ]
}
